Data taken from patent publication US9345677B2, “Compositions, methods and kits relating to HER-2 cleavage” (Incyte Corporation, priority 2003, dated 2016).

What was measured:
Her-2 sheddase = assay: Her-2 ECD ELISA of BT474 culture supernatants (Her-2 sheddase inhibition); assay type: cell-based, human
Protocol: BT474 cells were seeded in 100 μL of RPMI medium containing 10% FCS+10 μg/ml insulin in 96 well plates at 2×10^4 cells/well. The cells were incubated overnight at 37° C. The following morning, the media was removed and 100 μL of fresh media with or without compound was added back. The cells were incubated for about 72 hours at 37° C. After about 72 hours, the supernatants were removed. The samples were diluted 1:10 and analyzed using a commercially available Her-2 ELISA kit per manufacturer's instructions (Oncogene Research, catalog #QIA 10).
These inhibitors were added, at varying concentrations, to cultures of BT474 cells, a Her-2 overexpressing breast cancer cell line known to enzymatically process cell surface Her-2 (p185) and release the extracellular domain (ECD) into the culture supernatant, i.e., shedding of ECD. After 72 hours, cell culture supernatants were harvested and assayed for Her-2 ECD content using an ELISA assay.

MMP12 = MMP12 (Homo sapiens, UniProt P39900); assay: MMP12 fluorogenic peptide biochemical assay
Text: Source of enzymes for biochemical assays: Except for ADAM17 and MT1-MMP, all recombinant human MMPs and ADAMs were obtained from R&D Systems (Minneapolis, Minn.). […] MT1-MMP was obtained from US Biological (Swampscott, Mass.) with a catalog number of M2429. Porcine ADAM17 was purified in house from porcine spleen.
Substrates for biochemical assays: Fluorogenic Peptide substrate, (7-methoxycoumarin-4-yl)acetyl-Pro-Leu-Gly-Leu-(3-[2,4-dinitrophenyl]-L-2,3-diaminopropionyl)-Ala-Arg-NH2 (SEQ ID NO: 46), was obtained from R&D Systems (Minneapolis, Minn.) with a catalog number of ES001. It was used as substrate for MMP1, MMP2, MMP7, MMP8, MMP9, MMP12, MMP13, and MT1-MMP. Fluorogenic Peptide substrate, (7-methoxycoumarin-4-yl)acetyl-Arg-Pro-Lys-Pro-Val-Glu-Nva-Trp-Arg-Lys(2,4-dinitrophenyl)-NH2 (SEQ ID NO: 47), was obtained from R&D Systems with a catalog number of ES002. It was used as substrate for MMP3 and MMP10. […]
In general, 5 mM compound stock was prepared in DMSO. […] The plate was read on a plate reader with excitation of 320 nm and emission of 405 nm. Percentage of inhibition was calculated for each concentration and IC50 value was generated from curve fitting. […]

Sequence of MMP12 (P39900 106-470): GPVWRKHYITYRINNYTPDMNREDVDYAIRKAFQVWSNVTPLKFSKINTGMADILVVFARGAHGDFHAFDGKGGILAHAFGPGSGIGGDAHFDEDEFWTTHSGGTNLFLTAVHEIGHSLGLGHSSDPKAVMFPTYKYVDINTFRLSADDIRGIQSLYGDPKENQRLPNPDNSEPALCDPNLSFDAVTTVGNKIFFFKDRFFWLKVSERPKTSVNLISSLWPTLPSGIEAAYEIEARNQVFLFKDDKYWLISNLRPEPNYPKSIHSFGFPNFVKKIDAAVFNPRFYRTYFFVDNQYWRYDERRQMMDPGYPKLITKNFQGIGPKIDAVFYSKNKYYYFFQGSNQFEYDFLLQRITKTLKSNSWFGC

IC50 (Her-2 sheddase): 198 to 250 nM
IC50 (MMP12): 584 nM
Compound: Cc1cc([N+](=O)[O-])ccc1N1CCN(C(=O)[C@@H]2[C@@H](C(=O)NO)CC3(CC3)CN2C)CC1 [Compound 5, (6S,7S)-N-hydroxy-5-methyl-6-{[4-(2-methyl-4-nitrophenyl)piperazin-1-yl]-carbonyl}-5-azaspiro[2.5]octane-7-carboxamide]
